Values of other authors as cited in patent US20220079925A1, “COMPOSITIONS COMPRISING TACROLIMUS FOR THE TREATMENT OF INTRAOCULAR INFLAMMATORY EYE DISEASES” (NOVALIQ GMBH, priority 2016, published 2022).

How the values were obtained:
[1] = topical administration
T-lymphocyte = conditions: inhibiting T-lymphocyte signal transduction and cell proliferation

ability to penetrate tissue barrier [1]: poor
SMILES: C=CC[C@@H]1/C=C(\C)C[C@H](C)C[C@H](OC)[C@H]2O[C@@](O)(C(=O)C(=O)N3CCCC[C@H]3C(=O)O[C@H](/C(C)=C/[C@@H]3CC[C@@H](O)[C@H](OC)C3)[C@H](C)[C@@H](O)CC1=O)[C@H](C)C[C@@H]2OC [Tacrolimus]
potency relative to cyclosporine (T-lymphocyte): 100 times
